According to article PMC4164440, “Blood Pressure-Lowering Peptides from Neo-Fermented Buckwheat Sprouts: A New Approach to Estimating ACE-Inhibitory Activity” (PLoS ONE, 2014):
Read-outs that look alike come from different tables or passages of the source. Where a SMILES comes first, the peptide text is derived from it.

What was measured:
[1] = biological target: T1, ACE (EC 3.4.15.1) purified from the rabbit lungs (Oryctolagus cuniculus, UniProt P12822); assay: biochemical
T1 construct: ACE (EC 3.4.15.1) purified from the rabbit lungs; purchased Sigma-Aldrich Japan K.K; host or cells: rabbit lung (tissue-purified)
T1 sequence (P12822 34-1310): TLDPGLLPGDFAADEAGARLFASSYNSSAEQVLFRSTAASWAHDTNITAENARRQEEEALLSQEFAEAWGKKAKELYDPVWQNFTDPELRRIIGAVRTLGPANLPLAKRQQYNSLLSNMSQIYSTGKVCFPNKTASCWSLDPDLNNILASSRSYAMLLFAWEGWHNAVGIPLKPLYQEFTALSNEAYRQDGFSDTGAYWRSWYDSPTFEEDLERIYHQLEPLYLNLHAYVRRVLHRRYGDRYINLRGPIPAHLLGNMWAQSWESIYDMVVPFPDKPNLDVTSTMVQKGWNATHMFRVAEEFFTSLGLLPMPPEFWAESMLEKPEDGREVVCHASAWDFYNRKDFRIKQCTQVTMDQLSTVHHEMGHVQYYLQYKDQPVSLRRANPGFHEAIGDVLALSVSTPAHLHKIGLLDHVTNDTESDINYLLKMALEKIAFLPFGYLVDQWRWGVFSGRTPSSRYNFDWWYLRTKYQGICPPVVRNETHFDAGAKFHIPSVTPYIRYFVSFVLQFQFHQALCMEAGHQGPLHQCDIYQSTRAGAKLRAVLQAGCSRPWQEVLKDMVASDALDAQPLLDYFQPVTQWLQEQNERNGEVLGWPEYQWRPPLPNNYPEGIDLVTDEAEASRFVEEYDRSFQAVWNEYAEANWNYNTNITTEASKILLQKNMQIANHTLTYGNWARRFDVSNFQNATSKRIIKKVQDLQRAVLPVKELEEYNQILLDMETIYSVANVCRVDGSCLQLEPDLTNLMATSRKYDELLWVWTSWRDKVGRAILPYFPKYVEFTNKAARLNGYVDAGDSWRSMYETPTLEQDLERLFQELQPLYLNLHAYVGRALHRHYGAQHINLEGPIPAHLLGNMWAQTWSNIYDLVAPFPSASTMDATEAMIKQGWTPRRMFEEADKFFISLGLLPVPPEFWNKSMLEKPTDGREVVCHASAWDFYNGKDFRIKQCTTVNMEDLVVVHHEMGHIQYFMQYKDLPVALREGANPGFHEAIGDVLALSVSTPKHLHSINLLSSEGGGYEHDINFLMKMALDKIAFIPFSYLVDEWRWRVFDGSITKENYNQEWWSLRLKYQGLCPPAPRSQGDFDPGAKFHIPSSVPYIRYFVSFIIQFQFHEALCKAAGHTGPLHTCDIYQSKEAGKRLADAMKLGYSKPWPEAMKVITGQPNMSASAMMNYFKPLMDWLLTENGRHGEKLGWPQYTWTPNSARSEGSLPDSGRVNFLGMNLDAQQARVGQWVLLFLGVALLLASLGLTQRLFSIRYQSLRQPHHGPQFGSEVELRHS
Text: ACE (EC 3.4.15.1) purified from the rabbit lungs was obtained from Sigma-Aldrich Japan K.K. (Tokyo, Japan). Hippuryl-L-histidyl-L-leucine (Hip-His-Leu) was obtained from the Peptide Institute (Osaka, Japan). Ammonium formate, borate, diethyl ether, ethyl acetate, formate, hydrochloric acid (HCl), HPLC-grade acetonitrile, sodium chloride (NaCl), potassium chloride (KCl), potassium dihydrogen phosphate (KH2PO4), magnesium acetate (Mg(CH3COO)2), magnesium sulfate (MgSO4), Nonidet P-40, sodium hydrogen carbonate (NaHCO3), sucrose, and tris(hydroxymethyl)aminomethane were purchased from Kanto Chemical Co., Inc. (Tokyo, Japan). Trifluoroacetic acid (TFA) was purchased from Watanabe Chemical Industries, Ltd. (Hiroshima, Japan).
The in vitro ACE inhibition assay was performed using the method described previously. […] Then, 100 µL of commercial ACE (6.0 mU) was added, and the mixture was incubated at 37°C for 30 min. The reaction was stopped by 250 µL of 1.0 N HCl. Released hippuric acid (Hip) was extracted with 1.0 mL ethyl acetate and quantified by HPLC according to our previous report.

[2] = biological target: T2, Ang II-mediated vasoconstriction (Rattus norvegicus, UniProt P47820); assay: Ex vivo ACE inhibition assay: Ang II-mediated vasoconstriction of endothelium-denuded thoracic aorta rings; design: species or system spontaneously hypertensive rats (SHRs); conditions: 0.2 µM Ang I, read-out: EC50 of suppression of Ang II-mediated vasoconstriction
T2 sequence (P47820 36-1313): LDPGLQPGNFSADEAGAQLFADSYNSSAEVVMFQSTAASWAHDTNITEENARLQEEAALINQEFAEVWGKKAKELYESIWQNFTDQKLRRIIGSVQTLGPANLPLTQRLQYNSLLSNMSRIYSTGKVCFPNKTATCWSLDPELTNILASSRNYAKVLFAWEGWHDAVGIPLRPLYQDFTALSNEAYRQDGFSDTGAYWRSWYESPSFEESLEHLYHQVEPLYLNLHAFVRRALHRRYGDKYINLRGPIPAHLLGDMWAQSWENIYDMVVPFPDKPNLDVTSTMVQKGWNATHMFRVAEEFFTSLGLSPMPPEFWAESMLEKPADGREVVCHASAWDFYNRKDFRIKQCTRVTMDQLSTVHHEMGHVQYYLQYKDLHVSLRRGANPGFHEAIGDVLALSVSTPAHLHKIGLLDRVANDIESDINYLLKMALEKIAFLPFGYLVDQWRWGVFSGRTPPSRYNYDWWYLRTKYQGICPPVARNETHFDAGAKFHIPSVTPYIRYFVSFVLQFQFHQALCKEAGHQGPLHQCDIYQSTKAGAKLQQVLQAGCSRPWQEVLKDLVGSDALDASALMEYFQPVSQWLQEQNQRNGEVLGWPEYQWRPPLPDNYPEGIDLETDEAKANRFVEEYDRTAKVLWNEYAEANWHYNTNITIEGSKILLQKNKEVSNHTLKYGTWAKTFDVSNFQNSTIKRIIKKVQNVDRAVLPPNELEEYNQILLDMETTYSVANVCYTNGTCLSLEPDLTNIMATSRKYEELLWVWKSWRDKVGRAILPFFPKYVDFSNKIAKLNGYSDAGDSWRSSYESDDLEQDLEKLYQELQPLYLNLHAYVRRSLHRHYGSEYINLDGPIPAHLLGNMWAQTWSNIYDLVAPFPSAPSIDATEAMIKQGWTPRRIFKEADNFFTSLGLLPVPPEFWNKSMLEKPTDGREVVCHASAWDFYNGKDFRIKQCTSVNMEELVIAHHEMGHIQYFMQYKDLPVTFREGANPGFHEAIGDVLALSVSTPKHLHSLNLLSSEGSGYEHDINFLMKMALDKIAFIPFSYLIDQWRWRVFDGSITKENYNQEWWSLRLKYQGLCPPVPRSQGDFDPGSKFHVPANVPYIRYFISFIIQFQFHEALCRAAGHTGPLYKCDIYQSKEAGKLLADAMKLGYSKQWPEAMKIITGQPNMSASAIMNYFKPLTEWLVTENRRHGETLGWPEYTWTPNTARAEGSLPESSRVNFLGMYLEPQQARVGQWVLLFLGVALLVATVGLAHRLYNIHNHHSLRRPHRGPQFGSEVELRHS

[3] = biological target: T3, ACE in thoracic aorta tissue (Rattus norvegicus, UniProt P47820); assay: Ex vivo ACE inhibition assay: Ang II production in endothelium-denuded thoracic aorta rings (UPLC-MS)
T3 sequence (P47820 36-1313): T2 sequence (P47820 36-1313)
Description: Isolation of the thoracic aorta from SHRs (n = 12) and preparation of endothelium-denuded aortic rings was performed as described above. Endothelium was removed to eliminate the influence of endothelium-derived vasodilators.
After 30 min incubation, 1.0 mL of 0.20 µM Ang I was added and the aortic tension was recorded. When vasoconstriction plateaued, Krebs solution in the organ bath was transferred to a test tube and heated at 90°C for 5 min to stop the enzyme reaction; the heat-treated samples were dried under vacuum and frozen at −80°C until UPLC-MS analysis. The aorta rings were used in the BCA assay to express Ang II production as pmol/mg-protein.
Vacuum-dried samples were dissolved in 500 µL acetonitrile/4.0 mM ammonium formate (5∶95 v/v) with 4.0 mM formic acid prior to UPLC-MS analysis, performed at the CREFAS (Collaborated Research Center for Food Functions, Faculty of Agriculture, Shinshu University); Quattro micro API (MS) with an ACQUITY UPLC (Waters Co., USA) was used. Separation was conducted at 35°C using a CHEMCOBOND 5-ODS-W reversed-phase column (4.6×150 mm; ChemcoPlus Scientific Co., Ltd. Kyoto, Japan). […] Mass spectra were acquired in electrospray ionization (ESI) mode using 3500 V capillary voltage, 30 V cone voltage, 350 L/h N2 gas flow (desolvation), 50 L/h N2 gas flow (cone), 100°C source temperature, and 350°C desolvation temperature. […] For each sample, measurements were performed in triplicate; the results were expressed as the mean ± S.E.

[4] = system: systolic and diastolic blood pressure; conditions: SHRs; ref [8]; cited from earlier work
ACE = system: ACE; design: method as in PMID 7673515; conditions: ref [7], [8]; read-out: in vitro ACE-inhibitory activity IC50; cited from earlier work
[5] = Hip-His-Leu substrate, mean ± S.E., n = 3, read-out: In vitro ACE-inhibitory activity IC50

Compound	IC50 [1] [µM]	EC50 [2] [µM]	IC50 [3] [µM]	IC50 [1, 5] [µM]	other results
CC(C)[C@H](NC(=O)[C@@H](N)CC(=O)O)C(=O)N[C@@H](Cc1c[nH]c2ccccc12)C(=O)N[C@@H](Cc1ccc(O)cc1)C(=O)O [DVWY] (H-DVWY-OH)	690 ± 40	68.2	70.5		
C[C@H](NC(=O)[C@H](CC(=O)O)NC(=O)[C@@H](N)Cc1ccccc1)C(=O)N[C@@H](CCCNC(=N)N)C(=O)N[C@H](C(=O)O)[C@@H](C)O [FDART] (H-FDART-OH)	1900 ± 100	53.6	41.7		
NC(=O)CC[C@H](NC(=O)[C@@H](N)Cc1ccccc1)C(=O)O [FQ]		85.1	90.9	7400 ± 600	
CC(C)[C@H](N)C(=O)N[C@@H](C)C(=O)N[C@@H](CCC(=O)O)C(=O)O [VAE] (H-Val-Ala-Glu-OH)				55900 ± 1900	
CC(C)[C@H](N)C(=O)N[C@H](C(=O)NCC(=O)O)C(C)C [VVG] (H-Val-Val-Gly-OH)				39600 ± 5700	
C[C@@H](O)[C@H](NC(=O)[C@@H](N)Cc1c[nH]c2ccccc12)C(=O)N[C@@H](Cc1ccccc1)C(=O)N[C@@H](CCCNC(=N)N)C(=O)O [WTFR] (H-WTFR-OH)	6700 ± 500	36.8	5.64		reduction of Ang II production ([3]; at 10 µM, endothelium-denuded rings, 0.2 µM Ang I): 59%
Val-Tyr [VY]					minimum effective BPL dose [4]: 1.0 mg/kg; IC50 (ACE): 26 µM
